molecular target: T1, Neprilysin (Rattus norvegicus, UniProt P07861); experiment: Inhibition of neutral endopeptidase (NEP).
T1 sequence (P07861 whole entry): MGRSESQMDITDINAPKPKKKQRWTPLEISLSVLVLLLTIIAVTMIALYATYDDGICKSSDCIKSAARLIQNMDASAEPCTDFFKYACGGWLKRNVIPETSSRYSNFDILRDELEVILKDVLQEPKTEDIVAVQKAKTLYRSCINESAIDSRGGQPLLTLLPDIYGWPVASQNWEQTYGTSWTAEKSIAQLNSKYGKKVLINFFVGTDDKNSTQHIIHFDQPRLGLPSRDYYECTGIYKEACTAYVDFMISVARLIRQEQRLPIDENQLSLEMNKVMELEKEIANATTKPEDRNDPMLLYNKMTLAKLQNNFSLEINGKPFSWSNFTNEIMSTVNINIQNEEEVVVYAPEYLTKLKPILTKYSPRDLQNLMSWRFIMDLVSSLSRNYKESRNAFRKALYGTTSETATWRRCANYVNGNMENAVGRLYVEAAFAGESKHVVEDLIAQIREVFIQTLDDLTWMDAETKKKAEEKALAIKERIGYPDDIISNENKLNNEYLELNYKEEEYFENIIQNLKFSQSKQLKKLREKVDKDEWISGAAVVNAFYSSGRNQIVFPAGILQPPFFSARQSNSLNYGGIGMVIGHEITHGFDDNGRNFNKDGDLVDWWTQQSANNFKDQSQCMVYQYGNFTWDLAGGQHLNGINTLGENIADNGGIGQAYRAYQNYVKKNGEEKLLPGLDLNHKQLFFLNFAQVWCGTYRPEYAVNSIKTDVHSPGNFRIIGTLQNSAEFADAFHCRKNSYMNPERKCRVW

Compound | Ki [nM]
O=C(O)[C@@H]1CCCC2c3ccccc3C[C@@H](CS)C(=O)N21 (some centres undefined) | 45
C[C@H](NC(=O)C1(CS)CCc2ccccc2C1)C(=O)OCc1ccccc1 (some centres undefined) | 0.3
O=C(OCc1ccccc1)[C@H](Cc1ccc(O)cc1)NC(=O)C1(CS)CCc2ccccc2C1 (some centres undefined) | 0.5
O=C(CNC(=O)C1(CS)CCc2ccccc2C1)OCc1ccccc1 (centres undefined) | 0.4
O=C(CNC(=O)C1(CS)Cc2ccccc2C1)OCc1ccccc1 | 10
CC(C)[C@H](NC(=O)C1(CS)CCc2ccccc2C1)C(=O)OCc1ccccc1 (some centres undefined) | 2
O=C(NCc1ccc2c(c1)OCO2)C1(CS)CCc2ccccc2C1 (centres undefined) | 14
O=C(O)C1CCC(NC(=O)C2(CS)CCc3ccccc3C2)CC1 (centres undefined) | 0.6
O=C(CS)N[C@H]1Cc2ccccc2C2CCC[C@@H](C(=O)O)N2C1=O (some centres undefined) | 5
COC(=O)[C@H](Cc1ccccc1)NC(=O)C1(CS)CCc2ccccc2C1 (some centres undefined) | 4
COC(=O)CCNC(=O)C1(CS)CCc2ccccc2C1 (centres undefined) | 0.2
COC(=O)[C@H](CC(C)C)NC(=O)C1(CS)CCc2ccccc2C1 (some centres undefined) | 7
O=C(O)[C@@H]1CCCC2c3ccccc3C[C@H](CS)C(=O)N21 (some centres undefined) | > 300
O=C(O)CCCCCCNC(=O)C1(CS)CCc2ccccc2C1 (centres undefined) | 0.6

Source: ChEMBL document CHEMBL1129152, “Synthesis of constrained thiorphan analogs as inhibitors of neutral endopeptidase” (Bioorg Med Chem Lett, 1996)
